Values quoted from earlier work as cited in patent publication US20060014801A1, “Prevention and treatment of cognitive impairment using (R)-(-)-5-methyl-1-nicotynoyl-2-pyrazoline (MNP) and analogs” (The Johns Hopkins University, priority 2002, published 2006).

Tested on: aged rats
Conditions: cited from earlier work

## CO/N=C(\C(=O)N[C@@H]1C(=O)N2C(C(=O)O)=C(CSc3nc(=O)c(=O)[nH]n3C)CS[C@H]12)c1csc(N)n1 [ceftriaxone]
  Cognitive function: improvements of cognitive function
